In the NIST ThermoML archive (doi:10.1021/je200350a):

Assay: xn = mol fraction of the nth substance listed
Settings: 101 kPa, Liquid; for viscosity: Capillary tube (Ostwald / Ubbelohde) method

CCCCBr [1-bromobutane] + CC1CCCCC1
Settings | mass density, 293.15 K [kg/m3] | mass density, 298.15 K [kg/m3] | mass density, 303.15 K [kg/m3] | mass density, 308.15 K [kg/m3] | viscosity, 293.15 K [mPa·s] | viscosity, 298.15 K [mPa·s] | viscosity, 303.15 K [mPa·s] | viscosity, 308.15 K [mPa·s]
x2 = 0.1014 | 1218.7 | 1212.2 | 1206.3 | 1198.2 | 0.6398 | 0.6033 | 0.5754 | 0.5463
x2 = 0.1535 | 1187.3 | 1180.4 | 1174.2 | 1167.5 | 0.6402 | 0.6034 | 0.5745 | 0.5458
x2 = 0.2607 | 1129.8 | 1123 | 1118.5 | 1111 | 0.6441 | 0.6066 | 0.5762 | 0.5462
x2 = 0.372 | 1071 | 1064.8 | 1059.4 | 1053.2 | 0.6465 | 0.6104 | 0.578 | 0.5479
x2 = 0.4293 | 1041 | 1035.5 | 1029.9 | 1024.4 | 0.6517 | 0.6152 | 0.5826 | 0.5516
x2 = 0.5473 | 978.8 | 973.2 | 967.8 | 962.5 | 0.6581 | 0.62 | 0.5854 | 0.554
x2 = 0.608 | 946.5 | 941.2 | 935.8 | 930.7 | 0.6622 | 0.6235 | 0.5882 | 0.5561
x2 = 0.7979 | 858.3 | 853.5 | 849 | 843.8 | 0.6877 | 0.6457 | 0.6074 | 0.5721
x2 = 0.8639 | 830 | 825.8 | 821.8 | 816.5 | 0.6993 | 0.6558 | 0.6166 | 0.5806

CCCCBr [1-bromobutane] + O=[N+]([O-])c1ccccc1
Settings | mass density, 293.15 K [kg/m3] | mass density, 298.15 K [kg/m3] | mass density, 303.15 K [kg/m3] | mass density, 308.15 K [kg/m3] | viscosity, 293.15 K [mPa·s] | viscosity, 298.15 K [mPa·s] | viscosity, 303.15 K [mPa·s] | viscosity, 308.15 K [mPa·s]
x2 = 0.123 | 1270.9 | 1263.5 | 1256.5 | 1249 | 0.7256 | 0.6851 | 0.6486 | 0.615
x2 = 0.2445 | 1262.8 | 1256.6 | 1249.8 | 1242.4 | 0.8243 | 0.7761 | 0.7321 | 0.692
x2 = 0.3645 | 1253.7 | 1247.1 | 1240.8 | 1234.3 | 0.9397 | 0.8811 | 0.828 | 0.7802
x2 = 0.424 | 1249.7 | 1244 | 1238 | 1230.7 | 0.9936 | 0.9308 | 0.8743 | 0.8225
x2 = 0.542 | 1240.8 | 1234.4 | 1228.2 | 1222.2 | 1.131 | 1.055 | 0.986 | 0.925
x2 = 0.6585 | 1229.4 | 1223.8 | 1218.5 | 1212.4 | 1.281 | 1.19 | 1.109 | 1.037
x2 = 0.7737 | 1220.6 | 1214.7 | 1209.9 | 1205.1 | 1.477 | 1.364 | 1.266 | 1.18
x2 = 0.8875 | 1211.5 | 1206.6 | 1201.6 | 1196 | 1.703 | 1.566 | 1.447 | 1.34
x2 = 0.9439 | 1206.7 | 1201.6 | 1196.5 | 1191.2 | 1.835 | 1.682 | 1.548 | 1.43

O=[N+]([O-])c1ccccc1 [nitrobenzene] + CC1CCCCC1
Settings | mass density, 293.15 K [kg/m3] | mass density, 298.15 K [kg/m3] | mass density, 303.15 K [kg/m3] | mass density, 308.15 K [kg/m3] | viscosity, 293.15 K [mPa·s] | viscosity, 298.15 K [mPa·s] | viscosity, 303.15 K [mPa·s] | viscosity, 308.15 K [mPa·s]
x1 = 0.1422 | 820.2 | 816.2 | 812.4 | 808.2 | 0.785 | 0.735 | 0.6901 | 0.649
x1 = 0.2103 | 845.2 | 840.8 | 837.4 | 832.3 | 0.8282 | 0.7723 | 0.7233 | 0.6777
x1 = 0.3412 | 900.9 | 897.5 | 894.2 | 891 | 0.9436 | 0.8765 | 0.8177 | 0.7653
x1 = 0.404 | 919.6 | 915.6 | 912.8 | 909 | 0.9971 | 0.9244 | 0.8618 | 0.8054
x1 = 0.5249 | 973.2 | 970.2 | 965 | 962.6 | 1.125 | 1.042 | 0.9677 | 0.9044
x1 = 0.6397 | 1027 | 1022.7 | 1019.6 | 1016 | 1.266 | 1.172 | 1.089 | 1.015
x1 = 0.7489 | 1075.7 | 1071.6 | 1067.8 | 1062.9 | 1.416 | 1.312 | 1.218 | 1.136
x1 = 0.853 | 1123.6 | 1119.2 | 1114.5 | 1111.5 | 1.613 | 1.484 | 1.371 | 1.272
x1 = 0.9031 | 1150.8 | 1146.3 | 1142 | 1137.5 | 1.718 | 1.58 | 1.46 | 1.354
